In patent US20220211861A1, “DRUG CONJUGATES AND METHODS OF USING SAME” (The Board of Trustees of the Leland Staford Junior …, priority 2019, published 2022):
*1 amine or outer side, *2 acyl side, *3 side chain or, on linkers, in order; H or OH if unused. Where a SMILES comes first, the peptide text is derived from it. Bridges are numbered along the chain shown (N, C = ends). Roman numbers before positions name the chains, in order. [ ]: non-standard residue; d: D form. The star is where a group is joined. X1 = O=C([C@H](CCCn1nnc2c1-c1ccccc1CN([*:3])c1ccccc1-2)N[*:1])[*:2]; Dolaproine = CO[C@@H]([C@@H]1CCCN1)[C@@H](C)C(=O)O; X3 = O=C(CCC(=O)[*:1])NCCOCCOCCOCCC(=O)[*:2]; Dil = CC[C@H](C)[C@H](NC)[C@@H](CC(=O)O)OC; PABC = O=C(OCc1ccc(N[*:1])cc1)[*:2]; X2 = C[C@@H](N*)[C@@H](O)c1ccccc1; Cit = NC(=O)NCCC[C@H](N)C(=O)O; NMeV = CN[C@H](C(=O)O)C(C)C

Key:
[1] = test system: U87MG cells; assay: Indirect (competition) binding assay displacing Alexa Fluor 488-labeled knottin; conditions: competing off 1 nM AF488-2.5F on U87MG cells
Procedure: The binding affinity of the constructs described in Example 1 were measured using U87MG glioblastoma cells. Drug-free protein affinities were measured directly using Alexa Fluor 488-conjugaed proteins and drug conjugates were measured via a competition binding assay displacing Alexa Fluor 488-labeled K. All constructs tested bound to U87MG cells with low-nanomolar affinity (FIG. 9A-B).
U87MG cells were detached using Enzyme-Free Cell Dissociation Buffer (Gibco). Next, 4×10^4 cells were incubated with 1 nM of Alexa Fluor 488 labeled knottin as a competitor and varying concentrations (0.01-500 nM) of KDC, KFDC, or KADC in IBB for 3 h at 4° C. to minimize internalization. Cells were pelleted and washed twice with 800 μL of PBSA (phosphate buffered saline containing 0.1% bovine serum albumin) and the fluorescence of remaining surface-bound protein was measured by flow cytometry using a Guava EasyCyte 8HT instrument (EMD Millipore). Resulting data were evaluated using FlowJo software (TreeStar Inc) and equilibrium dissociation constants (Kd) were determined using Prism software (GraphPad). Error bars represent the standard deviation of experiments performed in triplicate.

[2] = test system: U87MG hip xenografts; assay: Pilot therapeutic efficacy study, dosing 3 times per week for 3 weeks; type: in vivo, Nu/Nu mice
Procedure: Using this treatment regimen as a starting point, a preliminary study was set up using 5 mice per treatment group. Mice were inoculated with 5×10^6 U87MG cells in the right flank and tumors were allowed to grow and establish until reaching an approximate area of 30 mm^2. Mice were then randomized into 1 of 4 treatment groups: PBS, KDC, KFDC, or KADC. To keep groups equivalent and provide the highest chance of efficacy for KDC despite its short circulatory half-life, all drug conjugate groups dosed 3 times per week for 3 weeks. Each dose contained the appropriate drug conjugate normalized to 2.38 nmol MMAE (˜0.6 mg/kg KDC, ˜5 mg/kg KFDC, ˜10 mg/kg KADC).

[3] = test system: RFP-expressing U87MG spheroids; assay: Confocal imaging of diffusion into tumor spheroids; type: cell-based; conditions: multiple z-heights
Procedure: To verify this mechanism, an in-vitro setup was constructed to test and visualize differences in solid tumor diffusion. Solid tumor spheroids of RFP-expressing U87MG glioblastoma cells were grown in ultra-low adhesion 96-well plates. Spheroids were grown to until reaching a diameter of ˜750 μm then treated with 200 nM of AF488-labeled KDC, KFDC, or KADC and incubated for 4 h. […]
To obtain a more quantitative comparison, the relative decay of green channel intensity was compared to red channel intensity from the constitutively expressed RFP. Because the red channel should be uniform, due to stable RFP expression, and is only attenuated by the optical density of the spheroid, this signal intensity was used to correct the signal intensity of the green channel.
Spheroids of RFP-expressing U87MG cells were formed by seeding round-bottom, 96-well ultra-low adhesion plates (Corning) with 4×10^3 cells/well and centrifuging at 1000×g for 10 minutes. Spheroids were grown for 4 days, until reaching a diameter of 750 μm. Spheroids were then incubated in fresh media containing 200 nM of Alexa Fluor 488-conjugated KDC, KFDC, or KADC for 4 h. […] Quantification was performed using FIJI image analysis software. Intensity was calculated radially from the center of each spheroid and plotted as the relative ratio of green intensity corrected for the intensity of RFP as an attenuation control.

In the case of `CC[C@H](C)[C@@H]([C@@H](CC(=O)N1CCC[C@H]1[C@H](OC)[C@@H](C)C(=O)N[C@H](C)[C@@H](O)c1ccccc1)OC)N(C)C(=O)[C@@H](NC(=O)[C@H](C(C)C)N(C)C(=O)OCc1ccc(NC(=O)[C@H](CCCNC(N)=O)NC(=O)[C@@H](NC(=O)CCOCCOCCOCCNC(=O)CCC(=O)N2Cc3ccccc3-c3c(nnn3CCC[C@@H]3NC(=O)[C@@H]4CSSC[C@@H]5NC(=O)[C@H](C(C)C)NC(=O)[C@H](CSSC[C@H](NC(=O)CN)C(=O)N6CCC[C@H]6C(=O)N[C@@H](CCCNC(=N)N)C(=O)N6CCC[C@H]6C(=O)N[C@@H](CCCNC(=N)N)C(=O)NCC(=O)N[C@@H](CC(=O)O)C(=O)N[C@@H](CC(N)=O)C(=O)N6CCC[C@H]6C(=O)N6CCC[C@H]6C(=O)N[C@@H](CC(C)C)C(=O)N[C@@H]([C@@H](C)O)C(=O)N4)NC(=O)CNC(=O)[C@H](C)NC(=O)[C@H](CC(C)C)NC(=O)[C@H](CSSC[C@@H](C(=O)NCC(N)=O)NC(=O)[C@H](Cc4ccc(O)cc4)NC(=O)CNC(=O)[C@H](CC(N)=O)NC(=O)[C@@H]4CCCN4C(=O)CNC5=O)NC(=O)[C@H](CC(=O)O)NC(=O)[C@H](CO)NC(=O)[C@H](CC(=O)O)NC(=O)[C@H](CCC(N)=O)NC3=O)-c3ccccc32)C(C)C)cc1)C(C)C` [KDC] (I: H-GCPRPRGDNPPLTC[X1]QDSDCLAGCVCGPNGYCG-NH2 / II: V[Cit][PABC][NMeV]V[Dil][Dolaproine]-X2; disulfide I:2-I:24, I:14-I:26, I:20-I:32; linker I:15-II:N via X3; N-terminus assumed), the Ki [1] is reported as 0.9 nM, the cytostatic effect maintained ([2]; dose normalized to 2.38 nmol MMAE (0.6 mg/kg KDC)) is reported as 4 of 5 and the complete tumor regression ([2]; dose normalized to 2.38 nmol MMAE, 5 mice per group) is reported as 1 of 5. The “green intensity in the center of each optical slice as a function of depth” value [3] was “remains relatively constant”.
